From patent US9125881B2, “Monoglyceride of acetoacetate and derivatives for the treatment of neurological disorders” (Accera, Inc., priority 2008, dated 2015)
“Also recorded” adds a separate entry of the source.

How the values were obtained:
[1] = Mouse pharmacokinetic (PK) study: blood ketone bodies after po and ip dosing; format: in vivo; details: ICR male mice, single po dose (2.5, 5, 10 ml/kg) or single ip dose (1 g/kg); plasma; as early as 15 minutes
Method: The inventor examined the blood levels of ketone bodies after oral (po) and intraperitoneal (ip) dosing of monoacetoacetin at different time points in the mouse.
ICR male mice 6 to 7 weeks old were used. Each mouse weighed between 20-30 grams. Animals were housed 3 per cage and were acclimated for at least 3 days prior to dosing. Mice were given either a single po dose (ranging from 2.5, 5 and 10 ml/kg) of compound, or a single ip dose (1 g/kg). Animals were anesthetized for blood collection at the times 15, 30, 60 and 180 minutes. Whole blood (˜0.4 mls) was collected via cardiac puncture and collected into sodium heparin anticoagulant (Na Heparin, 1:9 ratio). Blood was centrifuged for 8 minutes at 13,000 rpm to isolate plasma. The plasma was transferred into pre-labeled, color-coded eppendorf tubes and frozen at −70° C. […] Plasma levels of beta-hydroxybutyrate (BHB) were determined using a beta-hydroxybutyrate detection kit following manufacturer's directions (StanBio Inc.).

[2] = test system: MPTP lesioned mice; assay: Neuroprotective effects in MPTP lesioned mice (mouse model of Parkinson's disease); format: in vivo; details: for TH+ neuron density in substantia nigra (mean): 8 day ip MPTP, histology on treatment day 11
Method: To test the possible therapeutic potential of AC-0523 a small pilot experiment was performed examining the potential neuroprotective effects of AC-0523 in a mouse model of Parkinson's disease (PD). 1-methyl-4-phenyl-1,2,3,6-tetrahydropyridine (MPTP), blocks complex I (NADH-ubiquinone oxidoreductase) of the mitochondrial electron transport chain, and causes typical symptoms of (PD) and the loss of dopaminergic neurons.
Systemic injection of MPTP, upon conversion to MPP+, produces a loss of nigrostriatal dopamine (DA) nerve terminals and eventual death of […] dopaminergic neurons. This neuropathology mimics conditions in the dopamine denervated striatum of human PD patients, and produces […] and postural instability. Assays for tyrosine hydroxylase (TH), the enzyme responsible for catalyzing the production of dopamine, and quantification of TH-containing cells in the SNc are performed to measure the extent of […] dopaminergic neurodegeneration.
A parallel group design was used. After acclimation in the facility, subjects were tested on the Rotarod and activity tasks. On the second day of test treatment, all subjects began an 8 day ip administration of MPTP or saline. Fifteen minutes before MPTP or saline treatment and 2.75 hours after, subjects received either the test compound or saline. On the first and ninth treatment day blood draws were taken for subsequent monitoring of β-hydroxybutyrate. On treatment day 11 all subjects were euthanized and histology was preformed on a small number of test animals.

[3] = MPTP-treated mice, listed as AC-0523

## CC(=O)CC(=O)OCC(O)CO (stereo not drawn) [Monoacetoacetin, 2,3-dihydroxypropyl 3-oxobutanoate]
[1]
  circulating BHB levels: significant increases
[2]
  TH-positive cell counts in the SNc versus MPTP-treated mice who received only saline or AC-1202: higher
[2]; MPTP-treated mice
  density of TH in the caudate-putamen: highest
[2]; MPTP-treated mice, listed as AC0523
  TH+ neuron density in substantia nigra (mean): 111.000
[2]; [3]
  TH+ neuron density in substantia nigra (mean): 111±20
  protection of tyrosine hydroxylase (TH) expressing cells from MPTP toxicity / neuroprotection: protected tyrosine hydroxylase (TH) expressing cells from MPTP toxicity; also recorded: neuroprotective
